According to patent US11370798B2 (Vertex Pharmaceuticals Incorporated, priority 2012, dated 2022):

Test system: HCT116 colorectal cancer cells
Experiment: Cisplatin sensitization assay (96 h cell viability MTS);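 further: Test-compound concentration that lowers the Cisplatin IC50 by a set fold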
Assay type: cell-based
Conditions: compound and Cisplatin added simultaneously, Cisplatin sensitization value
Method in brief: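 Viability read by MTS (1 h at 37° C) after 96 h co-exposure at 37° C, 5% CO2. Test compound and cisplatin were dosed simultaneously in a full concentration matrix, each 2-fold serially diluted from 10 μM final; sensitization values binned in μM.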

SMILES	Cisplatin Sensitization Assay
Cc1cncc(NC(=O)c2c(N)nn3cc(F)cnc23)c1N1CCN(C2CCOCC2)CC1 [I-N-123, 2-amino-6-fluoro-N-(5-methyl-4-(4-(tetrahydro-2H-pyran-4-yl)piperazin-1-yl)pyridin-3-yl)pyrazolo[1,5-a]pyrimidine-3-carboxamide]	++ (Cisplatin sensitization value>0.02 μM but <0.2 μM)
Nc1nn2cc(F)cnc2c1C(=O)Nc1cncc(Cl)c1N1CCN(C2CCOC2)CC1 (stereo not shown) [I-N-124, 2-amino-N-(5-chloro-4-(4-(tetrahydrofuran-3-yl)piperazin-1-yl)pyridin-3-yl)-6-fluoropyrazolo[1,5-a]pyrimidine-3-carboxamide]	+++ (Cisplatin sensitization value of <0.02 μM)
Nc1nn2cc(F)cnc2c1C(=O)Nc1cncc(F)c1N1CCN([C@H]2CCOC2)CC1 [I-N-125, (S)-2-amino-6-fluoro-N-(5-fluoro-4-(4-(tetrahydrofuran-3-yl)piperazin-1-yl)pyridin-3-yl)pyrazolo[1,5-a]pyrimidine-3-carboxamide]	+++ (Cisplatin sensitization value of <0.02 μM)
Nc1nn2cc(F)cnc2c1C(=O)Nc1cncc(Cl)c1N1CCNCC1 [I-N-126, 2-amino-N-(5-chloro-4-(piperazin-1-yl)pyridin-3-yl)-6-fluoropyrazolo[1,5-a]pyrimidine-3-carboxamide]	+++ (Cisplatin sensitization value of <0.02 μM)
COCCN1CCN(c2c(F)cncc2NC(=O)c2c(N)nn3cc(F)cnc23)CC1 [I-N-127, 2-amino-6-fluoro-N-(5-fluoro-4-(4-(2-methoxyethyl)piperazin-1-yl)pyridin-3-yl)pyrazolo[1,5-a]pyrimidine-3-carboxamide]	+++ (Cisplatin sensitization value of <0.02 μM)
CN1CCC(C(=O)N2CCN(c3c(F)cncc3NC(=O)c3c(N)nn4cc(F)cnc34)CC2)CC1 [I-N-128, 2-amino-6-fluoro-N-(5-fluoro-4-(4-(1-methylpiperidine-4-carbonyl)piperazin-1-yl)pyridin-3-yl)pyrazolo[1,5-a]pyrimidine-3-carboxamide]	+++ (Cisplatin sensitization value of <0.02 μM)
Nc1nn2cc(F)cnc2c1C(=O)Nc1cncc(F)c1N1CCN(C(=O)C2CN3CCC2CC3)CC1 (stereo not shown) [I-N-130, 2-amino-6-fluoro-N-(5-fluoro-4-(4-(quinuclidine-3-carbonyl)piperazin-1-yl)pyridin-3-yl)pyrazolo[1,5-a]pyrimidine-3-carboxamide]	++ (Cisplatin sensitization value>0.02 μM but <0.2 μM)
CN1CC[C@@H](OC2CCN(c3ccncc3NC(=O)c3c(N)nn4cc(F)cnc34)CC2)C1 [I-N-131]	+++ (Cisplatin sensitization value of <0.02 μM)
CN1CC[C@@H](OC2CCN(c3c(F)cncc3NC(=O)c3c(N)nn4cc(F)cnc34)CC2)C1 [I-N-132, (R)-2-amino-6-fluoro-N-(5-fluoro-4-(4-((1-methylpyrrolidin-3-yl)oxy)piperidin-1-yl)pyridin-3-yl)pyrazolo[1,5-a]pyrimidine-3-carboxamide]	+++ (Cisplatin sensitization value of <0.02 μM)
CN1CCN(c2ccncc2NC(=O)c2c(N)nn3cc(F)cnc23)CC12CCOCC2 [I-N-133, 2-amino-6-fluoro-N-(4-(1-methyl-9-oxa-1,4-diazaspiro[5.5]undecan-4-yl)pyridin-3-yl)pyrazolo[1,5-a]pyrimidine-3-carboxamide]	++ (Cisplatin sensitization value>0.02 μM but <0.2 μM)
Nc1nn2cc(F)cnc2c1C(=O)Nc1cncc(F)c1N1CCN(C(=O)C23CCN(CC2)CC3)CC1 [I-N-134, 2-amino-6-fluoro-N-(5-fluoro-4-(4-(quinuclidine-4-carbonyl)piperazin-1-yl)pyridin-3-yl)pyrazolo[1,5-a]pyrimidine-3-carboxamide]	+ (Cisplatin sensitization value>0.2 μM but <5 μM)
Nc1nn2cc(F)cnc2c1C(=O)Nc1cncc(F)c1N1CCN2CCOC[C@H]2C1 [I-N-135, (R)-2-amino-6-fluoro-N-(5-fluoro-4-(hexahydropyrazino[2,1-c][1,4]oxazin-8(1H)-yl)pyridin-3-yl)pyrazolo[1,5-a]pyrimidine-3-carboxamide]	+++ (Cisplatin sensitization value of <0.02 μM)
Nc1nn2cc(F)cnc2c1C(=O)Nc1cnccc1N1CCN2C(=O)COCC2C1 (stereo not shown) [I-N-136, 2-amino-6-fluoro-N-(4-(4-oxohexahydropyrazino[2,1-c][1,4]oxazin-8(1H)-yl)pyridin-3-yl)pyrazolo[1,5-a]pyrimidine-3-carboxamide]	++ (Cisplatin sensitization value>0.02 μM but <0.2 μM)
Nc1nn2cc(F)cnc2c1C(=O)Nc1cncc(F)c1N1CCN2CCOC[C@@H]2C1 [I-N-137, (S)-2-amino-6-fluoro-N-(5-fluoro-4-(hexahydropyrazino[2,1-c][1,4]oxazin-8(1H)-yl)pyridin-3-yl)pyrazolo[1,5-a]pyrimidine-3-carboxamide]	++ (Cisplatin sensitization value>0.02 μM but <0.2 μM)
CN1CCN(c2c(F)cncc2NC(=O)c2c(N)nn3cc(C(C)(C)C#N)cnc23)CC1 [I-N-138, 2-amino-6-(2-cyanopropan-2-yl)-N-(5-fluoro-4-(4-methylpiperazin-1-yl)pyridin-3-yl)pyrazolo[1,5-a]pyrimidine-3-carboxamide]	++ (Cisplatin sensitization value>0.02 μM but <0.2 μM)
CC(C)(O)CN1CCN(c2c(F)cncc2NC(=O)c2c(N)nn3cc(F)cnc23)CC1 [I-N-139, 2-amino-6-fluoro-N-(5-fluoro-4-(4-(2-hydroxy-2-methylpropyl)piperazin-1-yl)pyridin-3-yl)pyrazolo[1,5-a]pyrimidine-3-carboxamide]	+++ (Cisplatin sensitization value of <0.02 μM)
CN1CCN(C(=O)N2CCN(c3c(F)cncc3NC(=O)c3c(N)nn4cc(F)cnc34)CC2)CC1 [I-N-140, 2-amino-6-fluoro-N-(5-fluoro-4-(4-(4-methylpiperazine-1-carbonyl)piperazin-1-yl)pyridin-3-yl)pyrazolo[1,5-a]pyrimidine-3-carboxamide]	+++ (Cisplatin sensitization value of <0.02 μM)
Nc1nn2cc(F)cnc2c1C(=O)Nc1cnccc1N1CCOCC1 [I-N-141, 2-amino-6-fluoro-N-(4-morpholinopyridin-3-yl)pyrazolo[1,5-a]pyrimidine-3-carboxamide]	+++ (Cisplatin sensitization value of <0.02 μM)
CC(C)(C#N)c1cnc2c(C(=O)Nc3cnccc3N3CCN(C4COC4)CC3)c(N)nn2c1 [I-N-142, 2-amino-6-(2-cyanopropan-2-yl)-N-(4-(4-(oxetan-3-yl)piperazin-1-yl)pyridin-3-yl)pyrazolo[1,5-a]pyrimidine-3-carboxamide]	++ (Cisplatin sensitization value>0.02 μM but <0.2 μM)
CC(C#N)c1cnc2c(C(=O)Nc3cnccc3N3CCN(C4COC4)CC3)c(N)nn2c1 (stereo not shown) [I-N-143, 2-amino-6-(1-cyanoethyl)-N-(4-(4-(oxetan-3-yl)piperazin-1-yl)pyridin-3-yl)pyrazolo[1,5-a]pyrimidine-3-carboxamide]	++ (Cisplatin sensitization value>0.02 μM but <0.2 μM)
CC(C)(C#N)c1cnc2c(C(=O)Nc3cncc(F)c3N3CCN(C4COC4)CC3)c(N)nn2c1 [I-N-144]	+++ (Cisplatin sensitization value of <0.02 μM)
CN(C)S(=O)(=O)C1CCN(c2c(F)cncc2NC(=O)c2c(N)nn3cc(F)cnc23)CC1 [I-N-146, 2-amino-N-(4-(4-(N,N-dimethylsulfamoyl)piperidin-1-yl)-5-fluoropyridin-3-yl)-6-fluoropyrazolo[1,5-a]pyrimidine-3-carboxamide]	+++ (Cisplatin sensitization value of <0.02 μM)
Nc1nn2cc(F)cnc2c1C(=O)Nc1cncc(F)c1N1CCC(N2CCCC2=O)CC1 [I-N-147, 2-amino-6-fluoro-N-(5-fluoro-4-(4-(2-oxopyrrolidin-1-yl)piperidin-1-yl)pyridin-3-yl)pyrazolo[1,5-a]pyrimidine-3-carboxamide]	+++ (Cisplatin sensitization value of <0.02 μM)
CN1CCC(N(C)S(=O)(=O)C2CCN(c3c(F)cncc3NC(=O)c3c(N)nn4cc(F)cnc34)CC2)CC1 [I-N-148, 2-amino-6-fluoro-N-(5-fluoro-4-(4-(N-methyl-N-(1-methylpiperidin-4-yl)sulfamoyl)piperidin-1-yl)pyridin-3-yl)pyrazolo[1,5-a]pyrimidine-3-carboxamide]	+++ (Cisplatin sensitization value of <0.02 μM)
Nc1nn2cc(F)cnc2c1C(=O)Nc1cncc(F)c1N1CCC(CN2CCOCC2)CC1 [I-N-149, 2-amino-6-fluoro-N-(5-fluoro-4-(4-(morpholinomethyl)piperidin-1-yl)pyridin-3-yl)pyrazolo[1,5-a]pyrimidine-3-carboxamide]	+++ (Cisplatin sensitization value of <0.02 μM)
CN1CCN(CC2CCN(c3c(F)cncc3NC(=O)c3c(N)nn4cc(F)cnc34)CC2)CC1 [I-N-150, 2-amino-6-fluoro-N-(5-fluoro-4-(4-((4-methylpiperazin-1-yl)methyl)piperidin-1-yl)pyridin-3-yl)pyrazolo[1,5-a]pyrimidine-3-carboxamide]	+++ (Cisplatin sensitization value of <0.02 μM)
CN1CCN(C2CCN(c3c(F)cncc3NC(=O)c3c(N)nn4cc(F)cnc34)CC2)C(=O)C1 [I-N-151, 2-amino-6-fluoro-N-(5-fluoro-4-(4-(4-methyl-2-oxopiperazin-1-yl)piperidin-1-yl)pyridin-3-yl)pyrazolo[1,5-a]pyrimidine-3-carboxamide]	+ (Cisplatin sensitization value>0.2 μM but <5 μM)
Nc1nn2cc(F)cnc2c1C(=O)Nc1cnccc1N1CCCCC1 [I-N-152, 2-amino-6-fluoro-N-(4-(piperidin-1-yl)pyridin-3-yl)pyrazolo[1,5-a]pyrimidine-3-carboxamide]	+++ (Cisplatin sensitization value of <0.02 μM)
